How the values were obtained:
Test in all cases: relative viability (nuclei count vs DMSO), 5 days (fraction); higher = more cells survive
[1] = compound: C/C(=N\NC(=S)N1CCC1)/C2=CC=CC=N2 + O=C(c1cc(Cc2n[nH]c(=O)c3ccccc23)ccc1F)N1CCN(C(=O)C2CC2)CC1 [Olaparib] (partner 8 µM)
How it was run: (§1)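 Cells from lung cancer lines were seeded into 1536-well plates and, one day later, dosed by pin tool. Treatments were either a single drug or a fixed dose of an anchor drug with five library-drug doses (not always all listed) in √10 steps. After 5 days, nuclei were stained in a one-step fixation (final 0.05% Triton X-100, 1% formaldehyde, 1 ug/ml Hoechst) and counted on 4× images, and relative viability is the treated-to-vehicle nuclei ratio, as the median of duplicate plates.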

[2] = compound: C/C(=N\NC(=S)N1CCC1)/C2=CC=CC=N2 + CC(=O)c1c(C)c2cnc(Nc3ccc(N4CCNCC4)cn3)nc2n(C2CCCC2)c1=O [Palbociclib] (partner 0.5 µM)
How it was run: as §1

[3] = compound: C/C(=N\NC(=S)N1CCC1)/C2=CC=CC=N2 + Cc1nc(NC(=O)N2CCC[C@H]2C(N)=O)sc1-c1ccnc(C(C)(C)C(F)(F)F)c1 [Alpelisib] (partner 2 µM)
How it was run: as §1

[4] = compound: C/C(=N\NC(=S)N1CCC1)/C2=CC=CC=N2 + Nc1nc2[nH]cc(CCc3ccc(C(=O)N[C@@H](CCC(=O)O)C(=O)O)cc3)c2c(=O)[nH]1 [Pemetrexed] (partner 0.2 µM)
How it was run: as §1

Cell Line	relative viability ([1]; first compound 0.05 µM)	relative viability ([1]; first compound 0.1581 µM)	relative viability ([1]; first compound 0.5 µM)	relative viability ([1]; first compound 1.581 µM)	relative viability ([1]; first compound 5 µM)	relative viability ([2]; first compound 0.05 µM)	relative viability ([2]; first compound 0.1581 µM)	relative viability ([2]; first compound 0.5 µM)	relative viability ([2]; first compound 1.581 µM)	relative viability ([2]; first compound 5 µM)	relative viability ([3]; first compound 0.05 µM)	relative viability ([3]; first compound 0.1581 µM)	relative viability ([3]; first compound 0.5 µM)	relative viability ([3]; first compound 1.581 µM)	relative viability ([3]; first compound 5 µM)	relative viability ([4]; first compound 0.05 µM)	relative viability ([4]; first compound 0.1581 µM)	relative viability ([4]; first compound 0.5 µM)	relative viability ([4]; first compound 1.581 µM)	relative viability ([4]; first compound 5 µM)
HCC-78	0.523	0.379	0.32	0.249	0.211	0.355	0.368	0.273	0.329	0.323	0.257	0.252	0.177	0.153	0.158	0.96	0.872	0.854	0.84	0.863
HCC-366	0.119	0.0248	0.0175	0.0198	0.0219	0.065	0.0358	0.0237	0.0228	0.026	0.0241	0.013	0.0152	0.0166	0.0137	0.0318	0.0443	0.0286	0.0295	0.0319
HCC-827	0.333	0.227	0.203	0.145	0.175	0.272	0.229	0.173	0.166	0.144	0.556	1.01	0.264	0.279	0.186	0.224	0.225	0.259	0.152	0.171
HOP-62	0.079	0.0776	0.0561	0.0753	0.0802	0.0827	0.234	0.0724	0.107	0.0858	0.105	0.895	0.0809	0.0743	0.0607	0.0662	0.0706	0.0806	0.128	0.0892
IA-LM	0.115	0.107	0.101	0.0716	0.0719						0.0645	0.0816	0.0594	0.0596	0.0781					
LC-2-ad	0.234	0.21	0.199	0.196	0.2	0.224	0.196	0.192	0.172	0.202	0.126	0.109	0.107	0.104	0.0953	0.202	0.218	0.217	0.217	0.192
LCLC-97TM1	0.0715	0.422	0.0519	0.0494	0.0514	0.0948	0.223	0.0874	0.0867	0.0722	0.107	0.203	0.107	0.106	0.112	0.0782	0.0748	0.0673	0.068	0.0595
LCLC-103H	0.3	0.613	0.222	0.236	0.256	0.335	0.464	0.309	0.289	0.287	0.34	0.978	0.24	0.257	0.233	0.321	0.301	0.328	0.253	0.325
LK-2	0.076	0.14	0.104	0.0854	0.0916	0.0858	0.0843	0.0965	0.0618	0.112	0.182	0.28	0.283	0.176	0.243	0.0705	0.123	0.0631	0.1	0.0756
LOU-NH91	0.482	0.562	0.458	0.44	0.451	0.486	0.526	0.496	0.388	0.389	0.485	0.442	0.407	0.382	0.424	0.392	0.439	0.421	0.403	0.366
LU99A	0.168	0.207	0.124	0.102	0.128	0.14	0.312	0.129	0.127	0.121	0.174	0.0993	0.112	0.142	0.135	0.192	0.158	0.164	0.146	0.162
NCI-H522	0.291	0.335	0.303	0.311	0.329	0.432	0.376	0.284	0.381	0.412						0.243	0.299	0.284	0.352	0.364
NCI-H596	0.616	0.391	0.347	0.31	0.292						0.371	0.256	0.267	0.227	0.313	0.373	0.302	0.339	0.243	0.292
NCI-H727	0.437	0.273	0.295	0.347	0.4	0.346	0.393	0.363	0.314	0.439	0.191	0.152	0.19	0.175	0.147					
NCI-H1299	0.111	0.144	0.183	0.167	0.15						0.094	0.195	0.213	0.213	0.15					
NCI-H1563											0.528	0.493	0.492	0.573	0.596	0.525	0.571	0.505	0.41	0.47
NCI-H1648	0.624	0.794	0.294	0.278	0.226	0.258	0.301	0.322	0.352	0.337						0.258	0.323	0.329	0.274	0.311
NCI-H1650	0.13	0.158	0.125	0.166	0.152	0.17	0.119	0.138	0.138	0.163						0.308	0.186	0.202	0.221	0.203
NCI-H1703	0.0864	0.132	0.103	0.0868	0.158						0.0878	0.0975	0.132	0.112	0.122					
NCI-H2342	0.276	0.281	0.192	0.206	0.259	0.276	0.283	0.274	0.253	0.255						0.262	0.288	0.277	0.259	0.251

Source: the supplement of paper PMC10307832
